In patent US10093623B2, “Cyclic amides as MetAP-2 inhibitors” (MERCK PATENT GmbH, priority 2012, dated 2018):

Biological target: MetAP-2 (Homo sapiens, UniProt P50579)
Test: MetAP-2 activity measurement (coupled enzymatic reactions, Met-Arg-Ser substrate, dianisidine detection at 450 nm)
Assay type: biochemical
Details: Inhibition of MetAP-2; read-out: IC50 enzyme
Procedure, shortened: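 Rate read from the linear part of the 450 nm absorbance trace. Dianisidine oxidation by peroxidase reports H2O2 made when amino acid oxidase acts on methionine cleaved from MAS tripeptide, one mol dye per mol Met; extinction coefficient gives molar activity.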

MetAP-2, sequence (P50579 whole entry, species assumed): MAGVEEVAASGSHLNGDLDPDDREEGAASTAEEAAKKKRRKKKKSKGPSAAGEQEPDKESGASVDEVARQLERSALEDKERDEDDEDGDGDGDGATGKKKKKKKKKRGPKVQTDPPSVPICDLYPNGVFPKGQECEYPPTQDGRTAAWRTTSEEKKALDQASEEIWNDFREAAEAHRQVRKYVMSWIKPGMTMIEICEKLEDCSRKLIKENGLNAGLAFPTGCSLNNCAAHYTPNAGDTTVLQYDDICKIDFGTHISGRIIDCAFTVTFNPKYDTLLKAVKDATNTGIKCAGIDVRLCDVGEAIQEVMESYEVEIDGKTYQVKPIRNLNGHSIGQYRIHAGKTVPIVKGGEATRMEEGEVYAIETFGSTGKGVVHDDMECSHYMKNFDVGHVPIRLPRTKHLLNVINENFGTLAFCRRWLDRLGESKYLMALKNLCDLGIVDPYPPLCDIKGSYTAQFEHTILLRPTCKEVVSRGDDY

SMILES | IC50
NC(=O)c1cc2cc(N3CC[C@@](O)(C(=O)NCc4cc(F)cc(Cl)c4)C3=O)ccc2[nH]1 [B79, 5-[(R)-3-(3-Chloro-5-fluorobenzylcarbamoyl)-3-hydroxy-2-oxopyrrolidin-1-yl]-1H-indole-2-carboxamide] | 1000 to 10000 nM
CCOC(=O)c1cc2cc(N3CC[C@@](O)(C(=O)NCc4cc(F)cc(Cl)c4)C3=O)ccc2[nH]1 [B81, Ethyl 5-[(R)-3-(3-chloro-5-fluorobenzylcarbamoyl)-3-hydroxy-2-oxopyrrolidin-1-yl]-1H-indole-2-carboxylate] | > 10000 nM
COCCn1cc(N2CCC(O)(C(=O)NCc3cc(F)cc(Cl)c3)C2=O)cn1 (centres unmarked) [B82, N-(3-Chloro-5-fluorobenzyl)-3-hydroxy-1-[1-(2-methoxyethyl)-1H-pyrazol-4-yl]-2-oxo-pyrrolidine-3-carboxamide] | 10 to 1000 nM
O=C(NCc1cc(F)cc(Cl)c1)[C@@]1(O)CCN(c2cnc3[nH]c(C(F)(F)F)cc3c2)C1=O [B83, N-(3-Chloro-5-fluorobenzyl)-(S)-3-hydroxy-2-oxo-1-(2-trifluoromethyl-1H-pyrrolo-[2,3-b]pyridin-5-yl)pyrrolidine-3-carboxamide] | 10 to 1000 nM
O=C(O)c1cc2cc(N3CC[C@](O)(C(=O)NCc4cc(F)cc(Cl)c4)C3=O)ccc2[nH]1 [B84, 5-[(S)-3-(3-Chloro-5-fluorobenzylcarbamoyl)-3-hydroxy-2-oxopyrrolidin-1-yl]-1H-indole-2-carboxylic acid] | 10 to 1000 nM
O=C(O)c1cc2cc(N3CC[C@@](O)(C(=O)NCc4cc(F)cc(Cl)c4)C3=O)ccc2[nH]1 [B85, 5-[(R)-3-(3-Chloro-5-fluorobenzylcarbamoyl)-3-hydroxy-2-oxopyrrolidin-1-yl]-1H-indole-2-carboxylic acid] | > 10000 nM
N#CCn1cc(N2CCC(O)(C(=O)NCc3cc(F)cc(Cl)c3)C2=O)cn1 (centres unmarked) [B87, N-(3-Chloro-5-fluorobenzyl)-1-(1-cyanomethyl-1H-pyrazol-4-yl)-3-hydroxy-2-oxopyrrolidine-3-carboxamide] | 10 to 1000 nM
CC(C)NC(=O)c1cc2cc(N3CC[C@@](O)(C(=O)NCc4cc(F)cc(Cl)c4)C3=O)ccc2[nH]1 [B89, N-Isopropyl-5-[(R)-3-(3-chloro-5-fluorobenzylcarbamoyl)-3-hydroxy-2-oxopyrrolidin-1-yl]-1H-indole-2-carboxamide] | > 10000 nM
CN(C)C(=O)c1cc2cc(N3CC[C@@](O)(C(=O)NCc4cc(F)cc(Cl)c4)C3=O)ccc2[nH]1 [B90, N,N-Dimethyl-5-[(R)-3-(3-chloro-5-fluorobenzylcarbamoyl)-3-hydroxy-2-oxopyrrolidin-1-yl]-1H-indole-2-carboxamide] | > 10000 nM

Now from value to compound:

IC50 | SMILES
10 to 1000 nM | O=C(NCc1cc(F)cc(Cl)c1)[C@@]1(O)CCN(c2cnc3[nH]ncc3c2)C1=O [B75, N-(3-Chloro-5-fluorobenzyl)-(S)-3-hydroxy-2-oxo-1-(1H-pyrazolo[3,4-b]pyridin-5-yl)-pyrrolidine-3-carboxamide]
10 to 1000 nM | O=C(NCc1cc(F)cc(Cl)c1)C1(O)CCN(c2cnc3[nH]c(C(F)(F)F)cc3c2)C1=O (centres unmarked) [B76, N-(3-Chloro-5-fluorobenzyl)-3-hydroxy-2-oxo-1-(2-trifluoro-methyl-1H-pyrrolo[2,3-b]pyridin-5-yl)pyrrolidine-3-carboxamide]
10 to 1000 nM | O=C(NCc1cc(F)cc(Cl)c1)[C@@]1(O)CCN(c2ccc3[nH]c(=O)sc3c2)C1=O [B77, N-(3-Chloro-5-fluorobenzyl)-(S)-3-hydroxy-2-oxo-1-(2-oxo-2,3-dihydrobenzothiazol-6-yl)-pyrrolidine-3-carboxamide]
10 to 1000 nM | NC(=O)c1cc2cc(N3CC[C@](O)(C(=O)NCc4cc(F)cc(Cl)c4)C3=O)ccc2[nH]1 [B78, 5-[(S)-3-(3-Chloro-5-fluorobenzylcarbamoyl)-3-hydroxy-2-oxopyrrolidin-1-yl]-1H-indole-2-carboxamide]
10 to 1000 nM | CCOC(=O)c1cc2cc(N3CC[C@](O)(C(=O)NCc4cc(F)cc(Cl)c4)C3=O)ccc2[nH]1 [B80, Ethyl 5-[(S)-3-(3-chloro-5-fluorobenzylcarbamoyl)-3-hydroxy-2-oxopyrrolidin-1-yl]-1H-indole-2-carboxylate]
